IC50 data for 27 compounds are collected here from patent US20260258064A1 (SIRONAX LTD., priority 2023, published 2026).

pIC50: −log10 of the molar value.

This assay concerns the target T1, SARM1 (50-724) (Homo sapiens, UniProt Q6SZW1).
T1 construct: Purified SARM1 (50-724) with a final concentration of 2 nM was pre-incubated with a test compound
T1 sequence (Q6SZW1 50-724): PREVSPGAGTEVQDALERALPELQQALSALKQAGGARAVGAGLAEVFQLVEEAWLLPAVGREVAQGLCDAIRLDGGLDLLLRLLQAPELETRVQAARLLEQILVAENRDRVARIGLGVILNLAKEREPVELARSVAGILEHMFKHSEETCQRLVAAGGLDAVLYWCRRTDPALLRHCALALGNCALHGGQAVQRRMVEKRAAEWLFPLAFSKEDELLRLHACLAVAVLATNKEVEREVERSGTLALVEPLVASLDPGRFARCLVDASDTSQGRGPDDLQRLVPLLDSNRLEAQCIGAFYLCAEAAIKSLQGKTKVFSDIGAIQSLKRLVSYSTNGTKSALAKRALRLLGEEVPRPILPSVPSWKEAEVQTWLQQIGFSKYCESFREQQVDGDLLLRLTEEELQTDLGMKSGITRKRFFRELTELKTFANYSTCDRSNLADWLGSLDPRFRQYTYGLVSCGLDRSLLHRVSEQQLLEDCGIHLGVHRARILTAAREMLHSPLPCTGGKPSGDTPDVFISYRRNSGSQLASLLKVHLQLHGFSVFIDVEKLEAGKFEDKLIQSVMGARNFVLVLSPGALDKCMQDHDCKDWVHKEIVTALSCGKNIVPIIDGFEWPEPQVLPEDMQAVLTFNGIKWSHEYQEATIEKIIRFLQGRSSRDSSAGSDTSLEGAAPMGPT
As to the kind of experiment: SARM1 (50-724) enzymatic assay (LC-MS/MS). In kind it is biochemical. To be noted: Purified SARM1 (50-724) 2 nM, NMN as activator, NAD+ as substrate, 1 h at room temperature, read-out: IC50 (SARM1 inhibitory activity). Summed up: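 Human SARM1 (50-724), 2 nM, pre-incubated 15 min at room temperature with compound in Dulbecco's PBS. Reaction started with 200 µM NMN (activator) plus […] NAD^+ substrate, run 1 h at room temperature, quenched with 70% acetonitrile. Turnover quantified by LC-MS/MS; IC50 reported.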
In the case of `CON(C)Cc1nnc(-c2nc3cc(C(F)(F)F)ccc3[nH]2)n1-c1cccc(F)c1Cl` [Compound 382, N-((4-(2-chloro-3-fluorophenyl)-5-(5-(trifluoromethyl)-1H-benzo[d]imidazol-2-yl)-4H-1,2,4-triazol-3-yl)methyl)-N,O-dimethylhydroxylamine], the pIC50 was not below 7.00. The value for `Fc1cccc(-n2c(Cn3ccnn3)nnc2-c2nc3cc(C(F)(F)F)ccc3[nH]2)c1Cl` [Compound 383, 2-(5-((1H-1,2,3-triazol-1-yl)methyl)-4-(2-chloro-3-fluorophenyl)-4H-1,2,4-triazol-3-yl)-5-(trifluoromethyl)-1H-benzo[d]imidazole] was not below 7.00; that for `O=C1CCCN1Cc1nnc(-c2nc3cc(C(F)(F)F)ccc3[nH]2)n1-c1cccc(F)c1Cl` [Compound 384, 1-((4-(2-chloro-3-fluorophenyl)-5-(5-(trifluoromethyl)-1H-benzo[d]imidazol-2-yl)-4H-1,2,4-triazol-3-yl)methyl)pyrrolidin-2-one] was 6.00 to 6.30; that for `CS(=O)(=O)Cc1c(-c2nncn2-c2cnccc2C(F)(F)F)[nH]c2ccc(C(F)(F)F)cc12` [Compound 385, 3-(methylsulfonylmethyl)-5-(trifluoromethyl)-2-[4-[4-(trifluoromethyl)-3-pyridyl]-1,2,4-triazol-3-yl]-1H-indole] was not below 7.00.

On to `FC(F)(F)c1ccc2[nH]c(-c3nncn3-c3cnccc3C(F)(F)F)c(-c3ccncc3)c2c1` [Compound 386, 3-(4-pyridyl)-5-(trifluoromethyl)-2-[4-[4-(trifluoromethyl)-3-pyridyl]-1,2,4-triazol-3-yl]-1H-indole], for which the pIC50 was not below 7.00. The value for `FC(F)(F)c1ccc2[nH]c(-c3nncn3-c3cnccc3C(F)(F)F)c(-c3cccnc3)c2c1` [Compound 387, 3-(pyridin-3-yl)-5-(trifluoromethyl)-2-(4-(4-(trifluoromethyl)pyridin-3-yl)-4H-1,2,4-triazol-3-yl)-1H-indole] was not below 7.00; that for `CC(C)(O)Cc1nnc(-c2nc3cc(C(F)(F)F)ccc3[nH]2)n1-c1cccc(F)c1Cl` [Compound 388, 1-(4-(2-chloro-3-fluorophenyl)-5-(5-(trifluoromethyl)-1H-benzo[d]imidazol-2-yl)-4H-1,2,4-triazol-3-yl)-2-methylpropan-2-ol] was not below 7.00.

Turning to `Cn1cc(-c2cnccc2C(F)(F)F)c(-c2nc3cc(C(F)(F)F)c(Cl)cc3[nH]2)cc1=O` [Compound 389, 4-(5-chloro-6-(trifluoromethyl)-1H-benzo[d]imidazol-2-yl)-1-methyl-4′-(trifluoromethyl)-[3,3′-bipyridin]-6(1H)-one], the pIC50 was 6.30 to 7.00.

With `FC(F)(F)c1ccc2[nH]c(-c3nncn3-c3cnccc3C(F)(F)F)c(-c3ccccn3)c2c1` [Compound 390, 3-(pyridin-2-yl)-5-(trifluoromethyl)-2-(4-(4-(trifluoromethyl)pyridin-3-yl)-4H-1,2,4-triazol-3-yl)-1H-indole], the pIC50 is not below 7.00. Take `Cc1cc(C(F)(F)F)c(-n2cnnc2-c2nc3cc(C(F)(F)F)ccc3[nH]2)nn1` [Compound 391, 2-(4-(6-methyl-4-(trifluoromethyl)pyridazin-3-yl)-4H-1,2,4-triazol-3-yl)-5-(trifluoromethyl)-1H-benzo[d]imidazole]: the pIC50 is 6.30 to 7.00.

For the compound `CP(C)(=O)c1cc(F)c2[nH]c(-c3nncn3-c3cnccc3C(F)(F)F)nc2c1` [Compound 392, 5-dimethylphosphoryl-7-fluoro-2-[4-[4-(trifluoromethyl)-3-pyridyl]-1,2,4-triazol-3-yl]-1H-benzimidazole], the pIC50 is 6.30 to 7.00.

For the compound `Cn1cc(-c2cnccc2C(F)(F)F)c(-c2nc3c(Cl)c(Cl)ccc3[nH]2)cc1=O` [Compound 393, 4-(4,5-dichloro-1H-benzo[d]imidazol-2-yl)-1-methyl-4′-(trifluoromethyl)-[3,3′-bipyridin]-6(1H)-one], the pIC50 is 6.00 to 6.30. On to `[2H]c1nnc(-c2nc3c(F)c(C4([2H])CC4)cc(F)c3[nH]2)n1-c1cnccc1C(F)(F)F` [Compound 394, 5-(cyclopropyl-1-d)-4,7-difluoro-2-(4-(4-(trifluoromethyl)pyridin-3-yl)-4H-1,2,4-triazol-3-yl-5-d)-1H-benzo[d]imidazole], for which the pIC50 is not below 7.00. The value for `Nc1nnc(-c2nc3cc(C(F)(F)F)ccc3[nH]2)n1-c1cccc(F)c1Cl` [Compound 396, 4-(2-chloro-3-fluorophenyl)-5-(5-(trifluoromethyl)-1H-benzo[d]imidazol-2-yl)-4H-1,2,4-triazol-3-amine] was not below 7.00; that for `NC(=O)c1cc(-c2nc3cc(C(F)(F)F)ccc3[nH]2)n(-c2cccc(F)c2Cl)n1` [Compound 397, 1-(2-chloro-3-fluorophenyl)-5-(5-(trifluoromethyl)-1H-benzo[d]imidazol-2-yl)-1H-pyrazole-3-carboxamide] was not below 7.00; that for `Fc1cccc(-n2c(CN3CC4(CCO4)C3)nnc2-c2nc3cc(C(F)(F)F)ccc3[nH]2)c1Cl` [Compound 398, 6-((4-(2-chloro-3-fluorophenyl)-5-(6-(trifluoromethyl)-1H-benzo[d]imidazol-2-yl)-4H-1,2,4-triazol-3-yl)methyl)-1-oxa-6-azaspiro[3.3]heptane] was not below 7.00. With `Cn1ncc(Cl)c1-c1ccnnc1-c1nc2cc(C(F)(F)F)ccc2[nH]1` [Compound 399, 2-(4-(4-chloro-1-methyl-1H-pyrazol-5-yl)pyridazin-3-yl)-5-(trifluoromethyl)-1H-benzo[d]imidazole], the pIC50 is not below 7.00. Consider `Cc1cnn(-c2cc(F)c3[nH]c(-c4nncn4-c4cnccc4C(F)(F)F)nc3c2)c1` [Compound 400, 7-fluoro-5-(4-methyl-1H-pyrazol-1-yl)-2-(4-(4-(trifluoromethyl)pyridin-3-yl)-4H-1,2,4-triazol-3-yl)-1H-benzo[d]imidazole], for which the pIC50 was not below 7.00.

Turning to `Cc1ccn(-c2cc(F)c3[nH]c(-c4nncn4-c4cnccc4C(F)(F)F)nc3c2)n1` [Compound 401, 7-fluoro-5-(3-methyl-1H-pyrazol-1-yl)-2-(4-(4-(trifluoromethyl)pyridin-3-yl)-4H-1,2,4-triazol-3-yl)-1H-benzo[d]imidazole], the pIC50 was not below 7.00. For `COc1cc(-c2nc3cc(C(F)(F)F)ccc3[nH]2)c(-c2cccc(Cl)c2Cl)cn1` [Compound 402, 2-(5-(2,3-dichlorophenyl)-2-methoxypyridin-4-yl)-5-(trifluoromethyl)-1H-benzo[d]imidazole], the pIC50 was 6.30 to 7.00. The value for `[2H]C([2H])([2H])N(c1cc(F)c2[nH]c(-c3nncn3-c3cnccc3C(F)(F)F)nc2c1)C([2H])([2H])[2H]` [Compound 403, 7-fluoro-N,N-bis(methyl-d3)-2-(4-(4-(trifluoromethyl)pyridin-3-yl)-4H-1,2,4-triazol-3-yl)-1H-benzo[d]imidazol-5-amine] was not below 7.00; that for `COc1cc(-c2ccccc2Cl)c(-c2nc3cc(C(F)(F)F)ccc3[nH]2)nn1` [Compound 405, 2-(4-(2-chlorophenyl)-6-methoxypyridazin-3-yl)-5-(trifluoromethyl)-1H-benzo[d]imidazole] was 6.30 to 7.00. Consider `Oc1cc(-c2ccccc2Cl)c(-c2nc3cc(C(F)(F)F)ccc3[nH]2)nn1` [Compound 406, 5-(2-chlorophenyl)-6-(5-(trifluoromethyl)-1H-benzo[d]imidazol-2-yl)pyridazin-3-ol], for which the pIC50 is 6.30 to 7.00. As for `FC(F)(F)c1ccc2[nH]c(-c3nnc(Cl)cc3-c3ccccc3Cl)nc2c1` [Compound 407, 2-(6-chloro-4-(2-chlorophenyl)pyridazin-3-yl)-5-(trifluoromethyl)-1H-benzo[d]imidazole], the pIC50 is not below 7.00. The value for `Cc1cnc(-c2cc(F)c3[nH]c(-c4nncn4-c4cnccc4C(F)(F)F)nc3c2)s1` [Compound 409, 2-[7-fluoro-2-[4-[4-(trifluoromethyl)-3-pyridyl]-1,2,4-triazol-3-yl]-1H-benzimidazol-5-yl]-5-methyl-thiazole] was not below 7.00; that for `O=c1cc(-n2cnnc2-c2cc3cc(C(F)(F)F)cc(F)c3[nH]2)c(OC(F)(F)F)cn1CCO` [Compound 410, 4-(3-(7-fluoro-5-(trifluoromethyl)-1H-indol-2-yl)-4H-1,2,4-triazol-4-yl)-1-(2-hydroxyethyl)-5-(trifluoromethoxy)pyridin-2(1H)-one] was not below 7.00; that for `OCCOc1cc(-n2cnnc2-c2cc3cc(C(F)(F)F)cc(F)c3[nH]2)c(OC(F)(F)F)cn1` [Compound 411, 2-((4-(3-(7-fluoro-5-(trifluoromethyl)-1H-indol-2-yl)-4H-1,2,4-triazol-4-yl)-5-(trifluoromethoxy)pyridin-2-yl)oxy)ethanol] was not below 7.00.

By pIC50 is commonly meant −log10 of the IC50, conventionally taken in molar units.
